According to publication PMC8469090 (Pharmaceutics, 2021):

System: cutaneous tumors (basal cell carcinoma, squamous cell carcinoma, melanoma, and others)
Assay: Tumor response 2 months after electrochemotherapy (RECIST 1.1)
Details: for tumor complete response rate 2 months after therapy: biopsied tumors, electrochemotherapy with i.v. bleomycin 15,000 IU/m^2; for Tumor Response (All Tumors): electrochemotherapy, 2 months, RECIST 1.1
Description: All patients who presented with skin cancers, recurrent disease (and/or metastatic disease) or a second primary tumor in the head and neck region were either not suitable for conventional treatments or refused them. The patients were treated with electrochemotherapy at the Department of Otorhinolaryngology and Cervicofacial Surgery, University Medical Centre Ljubljana, Slovenia or the Department of Dermatology and Allergology, University of Szeged, Hungary. […] Treatment with electrochemotherapy was previously agreed upon by a multidisciplinary board, and written informed consent was obtained from all eligible patients. The selection of patients was performed according to the NICE guidelines. The included patients were older than 18 years and presented with different histologies of cutaneous tumors (basal cell carcinoma, squamous cell carcinoma, melanoma, and others). […] In the study, altogether 25 patients were included; 8 patients younger than 65 for blood sample collection, 4 patients younger than 65 for blood and tumor sample collection and 13 patients for tumor sample collection with no age limitation.
Electrochemotherapy was performed according to the updated standard operating procedures [24]. […] Electric pulses for electrochemotherapy were generated by a Cliniporator pulse generator (IGEA, s.r.l., Carpi, Italy) and delivered by fixed geometry electrodes, i.e., mainly electrodes with eight needles arranged in two rows of four needles each with a distance of 4 mm between the rows. In one application of electric pulses, eight pulses with a voltage of 400 V, a pulse duration of 100 µs and a frequency of 5000 Hz were applied. The number of applications was adjusted to the size of the treated tumors.
The tumor volumes were calculated according to the SOP, i.e., a × b^2 × π/6. Tumor response 2 months after electrochemotherapy was evaluated with a clinical exam according to RECIST 1.1 criteria [25].

bleomycin
tumor complete response rate 2 months after therapy (BCC (8/9)): 89%
tumor complete response rate 2 months after therapy (SCC (4/5)): 80%
Tumor Response (All Tumors) (Table 3 patient 1 (BCC, 3 lesions, 24,000 IU)): 1 CR, 2 PR
Tumor Response (All Tumors) (Table 3 patient 5 (BCC, 5 lesions, 27,000 IU)): 4 CR, 1 SD
Tumor Response (All Tumors) (Table 3 patient 7 (BCC, 5 lesions, 24,000 IU)): 5 CR
Tumor Response (All Tumors) (Table 3 patient 11 * (SCC, 6 lesions, 30,000 IU)): 6 CR
Tumor Response (All Tumors) (Table 3 patient 15 * (Melanoma, 3 lesions, 29,100 IU)): 3 CR
Tumor Response (All Tumors) (Table 3 patient 17 (Porocarcinoma, 2 lesions, 29,850 IU)): 2 CR
Tumor Response (All Tumors) (Table 3 patient 19 (BCC, 16 lesions, 21,900 IU)): 11 CR, 5 PR
